Laboratory results from the supplement of paper PMC10307832.

Assays:
Experiment in all cases: relative viability (nuclei count vs DMSO), 5 days (fraction); higher = more cells survive
201T = test system: 201T
Summary of the method: (§1)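 Values are medians from duplicate plates. Each reflects relative viability, defined as the nuclei count of treated wells over that of vehicle wells. Lung cancer cell lines in 1536-well plates were pin-tool dosed one day after seeding with one drug alone or with a fixed anchor-drug dose plus five library-drug doses (not always all listed) in √10 steps, then fixed, stained and imaged at 4× after 5 days.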

BEN = test system: BEN
Summary of the method: as §1

EPLC-272H = test system: EPLC-272H
Summary of the method: as §1

HCC-15 = test system: HCC-15
Summary of the method: as §1

HCC-78 = test system: HCC-78
Summary of the method: as §1

LCLC-97TM1 = test system: LCLC-97TM1
Summary of the method: as §1

LU99A = test system: LU99A
Summary of the method: as §1

NCI-H1355 = test system: NCI-H1355
Summary of the method: as §1

NCI-H1395 = test system: NCI-H1395
Summary of the method: as §1

NCI-H2009 = test system: NCI-H2009
Summary of the method: as §1

NCI-H2085 = test system: NCI-H2085
Summary of the method: as §1

NCI-H2126 = test system: NCI-H2126
Summary of the method: as §1

NCI-H2228 = test system: NCI-H2228
Summary of the method: as §1

NCI-H23 = test system: NCI-H23
Summary of the method: as §1

NCI-H2405 = test system: NCI-H2405
Summary of the method: as §1

NCI-H322M = test system: NCI-H322M
Summary of the method: as §1

NCI-H460 = test system: NCI-H460
Summary of the method: as §1

NCI-H647 = test system: NCI-H647
Summary of the method: as §1

NCI-H650 = test system: NCI-H650
Summary of the method: as §1

NCI-H661 = test system: NCI-H661
Summary of the method: as §1

NCI-H838 = test system: NCI-H838
Summary of the method: as §1

PC-14 = test system: PC-14
Summary of the method: as §1

CCNC(=O)c1noc(-c2cc(C(C)C)c(O)cc2O)c1-c1ccc(CN2CCOCC2)cc1 [Luminespib] + CS(=O)(=O)N1CCN(Cc2cc3nc(-c4cccc5[nH]ncc45)nc(N4CCOCC4)c3s2)CC1 [Pictilisib] (partner 1 µM)
relative viability (201T; first compound 0.002 µM): 0.647 | relative viability (201T; first compound 0.006325 µM): 0.693 | relative viability (201T; first compound 0.02 µM): 0.649 | relative viability (201T; first compound 0.06325 µM): 0.721 | relative viability (201T; first compound 0.2 µM): 0.58 | relative viability (BEN; first compound 0.002 µM): 0.514 | relative viability (BEN; first compound 0.006325 µM): 0.597 | relative viability (BEN; first compound 0.02 µM): 0.332 | relative viability (BEN; first compound 0.06325 µM): 0.266 | relative viability (BEN; first compound 0.2 µM): 0.191 | relative viability (EPLC-272H; first compound 0.006325 µM): 0.267 | relative viability (EPLC-272H; first compound 0.02 µM): 0.254 | relative viability (EPLC-272H; first compound 0.06325 µM): 0.197 | relative viability (EPLC-272H; first compound 0.2 µM): 0.148 | relative viability (HCC-15; first compound 0.002 µM): 0.724 | relative viability (HCC-15; first compound 0.006325 µM): 0.644 | relative viability (HCC-15; first compound 0.02 µM): 0.623 | relative viability (HCC-15; first compound 0.06325 µM): 0.413 | relative viability (HCC-15; first compound 0.2 µM): 0.157 | relative viability (HCC-78; first compound 0.002 µM): 0.204 | relative viability (HCC-78; first compound 0.06325 µM): 0.267 | relative viability (HCC-78; first compound 0.2 µM): 0.279 | relative viability (LCLC-97TM1; first compound 0.002 µM): 0.17 | relative viability (LCLC-97TM1; first compound 0.006325 µM): 0.223 | relative viability (LCLC-97TM1; first compound 0.02 µM): 0.113 | relative viability (LCLC-97TM1; first compound 0.06325 µM): 0.103 | relative viability (LCLC-97TM1; first compound 0.2 µM): 0.0923 | relative viability (LU99A; first compound 0.002 µM): 0.351 | relative viability (LU99A; first compound 0.006325 µM): 0.36 | relative viability (LU99A; first compound 0.02 µM): 0.226 | relative viability (LU99A; first compound 0.06325 µM): 0.153 | relative viability (LU99A; first compound 0.2 µM): 0.112 | relative viability (NCI-H1355; first compound 0.002 µM): 0.411 | relative viability (NCI-H1355; first compound 0.006325 µM): 0.458 | relative viability (NCI-H1355; first compound 0.02 µM): 0.255 | relative viability (NCI-H1355; first compound 0.06325 µM): 0.143 | relative viability (NCI-H1355; first compound 0.2 µM): 0.152 | relative viability (NCI-H1395; first compound 0.002 µM): 0.684 | relative viability (NCI-H1395; first compound 0.006325 µM): 0.725 | relative viability (NCI-H1395; first compound 0.02 µM): 0.429 | relative viability (NCI-H1395; first compound 0.06325 µM): 0.326 | relative viability (NCI-H1395; first compound 0.2 µM): 0.377 | relative viability (NCI-H2009; first compound 0.002 µM): 0.855 | relative viability (NCI-H2009; first compound 0.006325 µM): 0.819 | relative viability (NCI-H2009; first compound 0.02 µM): 0.583 | relative viability (NCI-H2009; first compound 0.06325 µM): 0.0684 | relative viability (NCI-H2009; first compound 0.2 µM): 0.0548 | relative viability (NCI-H2085; first compound 0.002 µM): 0.448 | relative viability (NCI-H2085; first compound 0.006325 µM): 0.511 | relative viability (NCI-H2085; first compound 0.02 µM): 0.354 | relative viability (NCI-H2085; first compound 0.06325 µM): 0.51 | relative viability (NCI-H2085; first compound 0.2 µM): 0.28 | relative viability (NCI-H2126; first compound 0.002 µM): 0.464 | relative viability (NCI-H2126; first compound 0.006325 µM): 0.503 | relative viability (NCI-H2126; first compound 0.02 µM): 0.399 | relative viability (NCI-H2126; first compound 0.06325 µM): 0.49 | relative viability (NCI-H2126; first compound 0.2 µM): 0.273 | relative viability (NCI-H2228; first compound 0.002 µM): 0.496 | relative viability (NCI-H2228; first compound 0.006325 µM): 0.373 | relative viability (NCI-H2228; first compound 0.02 µM): 0.122 | relative viability (NCI-H2228; first compound 0.06325 µM): 0.168 | relative viability (NCI-H2228; first compound 0.2 µM): 0.108 | relative viability (NCI-H23; first compound 0.002 µM): 0.475 | relative viability (NCI-H23; first compound 0.006325 µM): 0.486 | relative viability (NCI-H23; first compound 0.02 µM): 0.374 | relative viability (NCI-H23; first compound 0.06325 µM): 0.134 | relative viability (NCI-H23; first compound 0.2 µM): 0.157 | relative viability (NCI-H2405; first compound 0.002 µM): 0.514 | relative viability (NCI-H2405; first compound 0.006325 µM): 0.298 | relative viability (NCI-H2405; first compound 0.02 µM): 0.301 | relative viability (NCI-H2405; first compound 0.06325 µM): 0.147 | relative viability (NCI-H2405; first compound 0.2 µM): 0.142 | relative viability (NCI-H322M; first compound 0.002 µM): 0.497 | relative viability (NCI-H322M; first compound 0.006325 µM): 0.525 | relative viability (NCI-H322M; first compound 0.02 µM): 0.447 | relative viability (NCI-H322M; first compound 0.06325 µM): 0.485 | relative viability (NCI-H322M; first compound 0.2 µM): 0.3 | relative viability (NCI-H460; first compound 0.002 µM): 0.35 | relative viability (NCI-H460; first compound 0.006325 µM): 0.243 | relative viability (NCI-H460; first compound 0.02 µM): 0.372 | relative viability (NCI-H460; first compound 0.06325 µM): 0.116 | relative viability (NCI-H460; first compound 0.2 µM): 0.0892 | relative viability (NCI-H647; first compound 0.002 µM): 0.511 | relative viability (NCI-H647; first compound 0.006325 µM): 0.439 | relative viability (NCI-H647; first compound 0.02 µM): 0.249 | relative viability (NCI-H647; first compound 0.06325 µM): 0.0858 | relative viability (NCI-H647; first compound 0.2 µM): 0.0845 | relative viability (NCI-H650; first compound 0.002 µM): 1.09 | relative viability (NCI-H650; first compound 0.006325 µM): 0.851 | relative viability (NCI-H650; first compound 0.02 µM): 0.477 | relative viability (NCI-H650; first compound 0.06325 µM): 0.209 | relative viability (NCI-H650; first compound 0.2 µM): 0.127 | relative viability (NCI-H661; first compound 0.002 µM): 0.357 | relative viability (NCI-H661; first compound 0.006325 µM): 0.344 | relative viability (NCI-H661; first compound 0.02 µM): 0.287 | relative viability (NCI-H661; first compound 0.06325 µM): 0.276 | relative viability (NCI-H661; first compound 0.2 µM): 0.223 | relative viability (NCI-H838; first compound 0.002 µM): 0.48 | relative viability (NCI-H838; first compound 0.006325 µM): 0.441 | relative viability (NCI-H838; first compound 0.02 µM): 0.223 | relative viability (NCI-H838; first compound 0.06325 µM): 0.117 | relative viability (NCI-H838; first compound 0.2 µM): 0.111 | relative viability (PC-14; first compound 0.002 µM): 0.698 | relative viability (PC-14; first compound 0.006325 µM): 0.588 | relative viability (PC-14; first compound 0.02 µM): 0.194 | relative viability (PC-14; first compound 0.06325 µM): 0.0484 | relative viability (PC-14; first compound 0.2 µM): 0.0383
